From ChEMBL document CHEMBL1145998, “Thermal denaturation: a method to rank slow binding, high-affinity P38alpha MAP kinase inhibitors” (J Med Chem, 2003)

Key:
[1] = target: T1, Mitogen-activated protein kinase 14 (Homo sapiens, UniProt Q16539); experiment: Dissociation constant at Tm against human Mitogen-activated protein kinase p38 alpha
[2] = target: T1, Mitogen-activated protein kinase 14; experiment: Dissociation constant at Tm against human Mitogen-activated protein kinase p38 alpha (fluorescence exchange curve)
[3] = target: T1, Mitogen-activated protein kinase 14; experiment: Dissociation constant at Tref against human Mitogen-activated protein kinase p38 alpha
[4] = target: T1, Mitogen-activated protein kinase 14; experiment: Dissociation constant fit from ITC data against human Mitogen-activated protein kinase p38 alpha (constant fit)

T1 sequence (Q16539 whole entry): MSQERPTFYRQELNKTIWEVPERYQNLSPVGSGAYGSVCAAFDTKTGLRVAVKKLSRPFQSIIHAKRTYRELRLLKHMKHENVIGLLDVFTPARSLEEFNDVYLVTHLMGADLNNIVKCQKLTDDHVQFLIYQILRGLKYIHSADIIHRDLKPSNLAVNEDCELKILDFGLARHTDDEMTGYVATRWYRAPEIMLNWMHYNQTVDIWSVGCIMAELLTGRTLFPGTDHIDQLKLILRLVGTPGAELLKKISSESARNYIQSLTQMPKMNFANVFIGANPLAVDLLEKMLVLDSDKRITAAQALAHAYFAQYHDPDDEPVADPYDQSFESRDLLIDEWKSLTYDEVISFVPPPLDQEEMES

| Compound | Kd [1] [nM] | Kd [2] [nM] | Kd [3] [nM] | Kd [4] [nM] |
| --- | --- | --- | --- | --- |
| Cc1ccc(-n2nc(C(C)(C)C)cc2NC(=O)Nc2ccccc2)cc1 | 177 | 21 | 16.8 | 5 |
| Cn1nc(C(C)(C)C)cc1NC(=O)Nc1ccc(OCCN2CCOCC2)c2ccccc12 | 210 |  | 25.7 | 10 |
| CC(C)(CO)c1cc(NC(=O)Nc2ccc(OCCN3CCOCC3)c3ccccc23)n(-c2ccccc2)n1 | 493 | 36 | 56.4 | 20 |
| O=C(Nc1ccc(OCCN2CCOCC2)c2ccccc12)Nc1ccnn1-c1ccccc1 | 6070 |  | 2400 | 1180 |

Molecules with a lower Kd [1], results first:

| Kd [1] [nM] | Kd [2] [nM] | Kd [3] [nM] | Kd [4] [nM] | Compound |
| --- | --- | --- | --- | --- |
| 118 | 1 | 10.6 |  | Cc1ccc(-n2nc(C(C)(C)C)cc2NC(=O)Nc2cccc3ccccc23)cc1 |
| 62.8 | 6 | 3.4 |  | CC(C)c1cc(NC(=O)Nc2ccc(OCCN3CCOCC3)c3ccccc23)n(-c2ccccc2)n1 |
| 5.3 | 0.09 | 0.231 |  | CC(C)(C)c1cc(NC(=O)Nc2ccc(OCCN3CCOCC3)c3ccccc23)n(-c2ccccc2)n1 |
